One test has as its target T1, Adenosine deaminase (Bos taurus, UniProt P56658).
T1 sequence (P56658 whole entry): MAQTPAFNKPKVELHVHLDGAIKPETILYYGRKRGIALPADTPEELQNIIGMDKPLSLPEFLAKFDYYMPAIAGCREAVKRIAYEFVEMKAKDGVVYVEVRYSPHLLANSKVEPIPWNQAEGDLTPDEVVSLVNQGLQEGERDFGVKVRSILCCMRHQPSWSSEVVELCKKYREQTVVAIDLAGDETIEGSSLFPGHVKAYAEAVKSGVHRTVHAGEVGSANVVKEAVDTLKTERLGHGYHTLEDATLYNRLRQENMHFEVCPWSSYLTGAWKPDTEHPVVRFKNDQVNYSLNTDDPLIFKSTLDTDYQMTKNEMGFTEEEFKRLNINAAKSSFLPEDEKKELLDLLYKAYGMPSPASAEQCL
As to the kind of experiment: Inhibition of Calf intestinal adenosine deaminase (ADA).

Another test addresses T2, AMP deaminase 3 (Homo sapiens, UniProt Q01432).
T2 sequence (Q01432 whole entry): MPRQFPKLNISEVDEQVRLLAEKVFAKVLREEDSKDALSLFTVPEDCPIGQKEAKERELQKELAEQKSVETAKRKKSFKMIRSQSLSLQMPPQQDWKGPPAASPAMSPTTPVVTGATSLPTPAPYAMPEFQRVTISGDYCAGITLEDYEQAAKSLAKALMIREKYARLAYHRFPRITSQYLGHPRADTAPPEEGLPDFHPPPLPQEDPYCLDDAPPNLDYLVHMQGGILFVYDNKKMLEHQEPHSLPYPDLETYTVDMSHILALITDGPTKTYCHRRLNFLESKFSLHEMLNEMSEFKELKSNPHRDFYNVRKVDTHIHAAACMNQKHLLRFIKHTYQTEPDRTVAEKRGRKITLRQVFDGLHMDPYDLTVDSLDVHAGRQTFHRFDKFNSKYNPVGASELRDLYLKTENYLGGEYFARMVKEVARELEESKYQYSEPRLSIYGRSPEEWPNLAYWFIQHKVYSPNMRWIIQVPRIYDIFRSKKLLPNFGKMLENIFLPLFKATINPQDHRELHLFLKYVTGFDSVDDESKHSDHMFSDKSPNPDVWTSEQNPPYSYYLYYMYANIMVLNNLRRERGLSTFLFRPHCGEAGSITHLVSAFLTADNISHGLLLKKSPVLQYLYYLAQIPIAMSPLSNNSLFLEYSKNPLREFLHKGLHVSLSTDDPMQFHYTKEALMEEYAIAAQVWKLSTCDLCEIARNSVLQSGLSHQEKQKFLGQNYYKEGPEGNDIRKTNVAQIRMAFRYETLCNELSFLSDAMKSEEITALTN
Briefly: Inhibition of recombinant human E-type adenylate deaminase.

Molecules are shown by their SMILES.

Turning to `CCOC(=O)c1c(Cl)c2c(c(CCn3cnc4c3NC=NCC4O)c1Cl)CCCC2` (configuration not stated), the Ki (as a rule, a measure of affinity in units of concentration, obtained from inhibition or displacement) was over 7.5 µM at Adenosine deaminase and 0.5 µM on AMP deaminase 3. Regarding `O=C(O)c1cc(CCn2cnc3c2N=CNCC3O)c2cc(Br)ccc2c1` (configuration not stated), the Ki on Adenosine deaminase was over 7.5 µM; at AMP deaminase 3 it was 0.96 µM. In the same order, the values of `CCOC(=O)c1cc(CCn2cnc3c2N=CNCC3O)c2cccc(C(F)(F)F)c2c1` (configuration not stated) are 2.7 µM and 35 µM.

Turning to `CCOC(=O)c1cc2c(c(CCn3cnc4c3N=CNCC4O)c1)CCCC2` (configuration not stated), the Ki was 3.4 µM at Adenosine deaminase and 1.3 µM on AMP deaminase 3. As for `O=C(O)c1cc(CCn2cnc3c2N=CNCC3O)c2cccc(C(F)(F)F)c2c1` (configuration not stated), the Ki on Adenosine deaminase is over 7.5 µM; on AMP deaminase 3, 0.22 µM. As for `O=C(O)c1cc(CCn2cnc3c2N=CNCC3O)c2c(c1OCc1ccccc1)CCCC2` (configuration not stated), the Ki at Adenosine deaminase was over 7.5 µM; on AMP deaminase 3 it was 0.009 µM. In the same order, the values of `CCOC(=O)c1cc(CCn2cnc3c2NC=NCC3O)c2c(c1Br)CCCC2` (configuration not stated) are 0.53 µM and 1 µM. For `O=C(OCc1ccccc1)c1cc2c(c(CCn3cnc4c3N=CNCC4O)c1)CCCC2` (configuration not stated) the same measures were 0.72 µM and 5 µM. In the same order, the values of `COc1c(C(=O)O)cc2c(c1CCn1cnc3c1NC=NCC3O)CCCC2` (configuration not stated) are over 7.5 µM and 0.04 µM. Regarding `CCOC(=O)c1cc(CCn2cnc3c2NC=NCC3O)c2c(c1OC)CCCC2` (configuration not stated), the Ki on Adenosine deaminase worked out at 3.7 µM; at AMP deaminase 3, 2.3 µM. For `O=C(O)c1cc2c(c(CCn3cnc4c3NC=NCC4O)c1)CCCC2` (configuration not stated) the same measures were over 7.5 µM and 0.015 µM.

`COC(=O)c1cc(CCn2cnc3c2NC=NCC3O)c2ccccc2c1` (configuration not stated): the Ki at Adenosine deaminase was over 7.5 µM; on AMP deaminase 3 it was 1.8 µM. As to `CC(C)Oc1c(C(=O)O)cc(CCn2cnc3c2N=CNCC3O)c2c1CCCC2` (configuration not stated), the Ki was over 7.5 µM on Adenosine deaminase and 0.09 µM at AMP deaminase 3.

On to `CCOC(=O)c1cc(CCn2cnc3c2NC=NCC3O)c2c(c1OCc1ccccc1)CCCC2` (configuration not stated), for which the Ki on Adenosine deaminase was over 7.5 µM; on AMP deaminase 3 it was 0.3 µM.

For `COc1c(C(=O)O)cc(CCn2cnc3c2NC=NCC3O)c2c1CCCC2` (configuration not stated), the Ki was over 7.5 µM at Adenosine deaminase and 0.03 µM on AMP deaminase 3. In the case of `CCOC(=O)c1cc2c(c(CCn3cnc4c3N=CNCC4O)c1OC)CCCC2` (configuration not stated), the Ki was over 7.5 µM on Adenosine deaminase and 2.4 µM at AMP deaminase 3. `O=C(O)c1c(Cl)c2c(c(CCn3cnc4c3N=CNCC4O)c1Cl)CCCC2` (configuration not stated): the Ki was over 7.5 µM on Adenosine deaminase and 0.05 µM at AMP deaminase 3. For `O=C(O)c1cc(CCn2cnc3c2N=CNCC3O)c2c(c1Br)CCCC2` (configuration not stated) the same measures were over 7.5 µM and 0.002 µM. As to `O=C(O)c1cc(CCn2cnc3c2NC=NCC3O)c2ccccc2c1` (configuration not stated), the Ki was over 1000 µM at Adenosine deaminase and 0.02 µM at AMP deaminase 3. For `CCOC(=O)c1cc(CCn2cnc3c2NC=NCC3O)c2c(c1OC(C)C)CCCC2` (configuration not stated) the same measures were over 7.5 µM and 3.8 µM. In the same order, the values of `CCOC(=O)c1cc(CCn2cnc3c2N=CNCC3O)c2cc(Br)ccc2c1` (configuration not stated) are 4.4 µM and 14 µM. In the same order, the values of `O=C(OCc1ccccc1)c1c(Cl)c2c(c(CCn3cnc4c3NC=NCC4O)c1Cl)CCCC2` (configuration not stated) are over 7.5 µM and 0.3 µM. `O=C(O)c1cccc(CCn2cnc3c2N=CNCC3O)c1` (configuration not stated): the inhibition constant Ki on AMP deaminase 3 was 0.5 µM.

For `O=C(O)C(CCCCn1cnc2c1NC=NCC2O)Cc1ccccc1` (configuration not stated), the Ki at AMP deaminase 3 came to 0.41 µM. Still for that read-out and setting: in the case of `OC[C@H]1O[C@@H](n2cnc3c2N=CNC[C@H]3O)[C@H](O)[C@@H]1O` [COFORMYCIN] it was 3 µM.
